In patent US9060928B2, “Tacrolimus injection preparation” (FUZHOU HARVESTER PHARMACEUTICAL R&D CO., LTD., priority 2009, dated 2015):

Tests used:
[1] = cited from earlier work
guinea pigs = experiment: Hypersensitivity test in animals; format: in vivo
Description: 18 healthy guinea pigs weighed 250-350 g were divided into 3 groups (a test group, a negative control group, and a positive control group) of 6 animals each at random. […] In 15 min after the injection, the hypersensitive responses of the injected guinea pigs were observed. A positive response was determined if two or more of piloerection, dyspnea, or 3 cough sounds, or one of twitch, collapse or death appeared.

Molecule | Solubility in organic solvents ([1]; organic solvents (such as methanol, ethanol, or acetone)) | Solubility in water ([1]; water) | Occurrence of hypersensitive response (guinea pigs; guinea pigs, n = 6, intraperitoneal sensitization, intravenous boost at days 14 and 21, animals responding/total) | Hypersensitive response of positive control (in words) (guinea pigs; in 1 min after two times of intravenous administration, 6 guinea pigs)
C=CC[C@@H]1/C=C(\C)C[C@H](C)C[C@H](OC)[C@H]2O[C@@](O)(C(=O)C(=O)N3CCCC[C@H]3C(=O)O[C@H](/C(C)=C/[C@@H]3CC[C@@H](O)[C@H](OC)C3)[C@H](C)[C@@H](O)CC1=O)[C@H](C)C[C@@H]2OC (relative stereo) [tacrolimus, [3S—[3R*[E(1S*,3S*,4S*)],4S*,5R*,8S*,9E,12R*,14R*,15S*,16R*,18S*,19S*,26aR*]]-5,6,8,11,12,13,14,15,16,17,18,19,24,25,26a-hexa-decahydro-5,19-dihydroxy-3-[2-(4-hydroxy-3-methoxycyclohexyl)-1-methylethenyl]-14,16-dimethoxy-4,10,12,18-tetramethyl-8-(2-propenyl)-15,19-epoxy-3H-pyrido[2,1-c][1,4]oxazacyclotricosene-1,7,20,21(4H,23H)-tetrone, monohydrate] | freely soluble | practically insoluble | – | –
10% ovalbumin solution: 10% ovalbumin solution, positive control of the hypersensitivity test (protein, UniProt P01012 2-386, looked up) Ovalbumin: GSIGAASMEFCFDVFKELKVHHANENIFYCPIAIMSALAMVYLGAKDSTRTQINKVVRFDKLPGFGDSIEAQCGTSVNVHSSLRDILNQITKPNDVYSFSLASRLYAEERYPILPEYLQCVKELYRGGLEPINFQTAADQARELINSWVESQTNGIIRNVLQPSSVDSQTAMVLVNAIVFKGLWEKAFKDEDTQAMPFRVTEQESKPVQMMYQIGLFRVASMASEKMKILELPFASGTMSMLVLLPDEVSGLEQLESIINFEKLTEWTSSNVMEERKIKVYLPRMKMEEKYNLTSVLMAMGITDVFSSSANLSGISSAESLKISQAVHAAHAEINEAGREVVGSAEAGVDAASVSEEFRADHPFLFCIKHIATNAVLFFGRCVSP | – | – | 6/6 | cough, respiratory depression, and twitch to death occur to all of the 6 guinea pigs
